# Data: patent US5500430A, “Amidic derivatives of glutamic, aspartic and 2-amino adipic acids, a process for preparing same, and anti-gastrin composition containing the derivatives” (Rotta Research Laboratorium S.p.A., priority 1990, dated 1996)
# Assays:
# [1] = biological target: T1, gastrin receptor sites on the cerebral cortex membranes of mice (Mus musculus, UniProt P56481); assay: Inhibition of the binding of pentagastrin to mouse cortical membranes
# T1 construct: Mouse cortical tissue; from tissue; host or cells: mouse cerebral cortex membranes
# T1 sequence (P56481 1-453): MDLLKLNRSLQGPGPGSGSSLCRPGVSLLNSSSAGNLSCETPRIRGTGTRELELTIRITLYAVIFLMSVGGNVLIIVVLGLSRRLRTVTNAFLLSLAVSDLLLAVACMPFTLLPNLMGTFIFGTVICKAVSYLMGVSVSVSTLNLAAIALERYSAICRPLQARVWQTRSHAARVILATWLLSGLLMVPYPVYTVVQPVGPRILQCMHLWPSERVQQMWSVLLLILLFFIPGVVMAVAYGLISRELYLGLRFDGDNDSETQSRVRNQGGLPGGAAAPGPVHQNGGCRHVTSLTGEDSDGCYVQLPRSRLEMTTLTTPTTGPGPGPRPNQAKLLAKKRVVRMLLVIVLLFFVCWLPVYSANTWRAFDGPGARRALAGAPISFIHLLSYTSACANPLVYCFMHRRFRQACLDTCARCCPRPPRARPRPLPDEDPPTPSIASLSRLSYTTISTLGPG
# Description: Tests on binding to cerebral cortex membranes of mice
# The capacities of some of the compounds of the invention to inhibit the binding of pentagastrin to the gastrin receptor sites on the cerebral cortex membranes of mice was to be evaluated. Pentagastrin tritiate[beta-alanyl-3-3H(N)] was used as the ligand.
# Mouse cortical tissue Was homogenised cold in 20 volumes of tris buffer (pH 7.7). After washing and centrifuging, the final pellet was resuspended in 20 volumes of binding buffer containing, inter alia, TRIS, BSA and Bacitracin. 0.4 ml of the membrane thus obtained were then incubated with a radioactive tracer and the compounds under test for 40 minutes at 37° C.
# After the supernatant liquid had been removed by centrifuging, the radioactivity associated with the pellet was determined with a liquid scintillator (a beta-counter). The specific binding was the difference between the binding in the absence and in the presence of 10^-5M pentagastrin.
# fundic mucosa = assay: Fundic mucosa hyperplasia induced by pentagastrin in mice; assay type: in vivo; settings: 21 days
# Description: Inhibitory effect on the rate of growth of tumorous colic cells induced by pentagastrin
# Gastrin has a trophic effect on the digestive epithelium.
# Upon the basis of this premise, it was wished to investigate whether the gastrin-specific antagonists of the invention could antagonise the growth of experimentally-induced gastrointestinal tumours.
# Male mice weighing 20-25 g were inoculated subcutaneously in the interscapular region with a suspension of 8×10^4 tumour cells of a mouse colic adenocarcinoma.
# After 21 days, the animals were killed and the fundic mucosa and the tumours were removed, weighed and extracted to determine the DNA.
# [2] = pentagastrin + C-5 3 mg/Kg i.p. twice a day
# [3] = pentagastrin + C-5 10 mg/Kg i.p. twice a day
smiles,measurement,setting,value
O=C(O)CC[C@@H](NC(=O)c1cc(Cl)cc(Cl)c1)C(=O)N1CCC2(CCCC2)CC1 [Compound C5],IC50,"[1]; pentagastrin tritiate ligand, 40 minutes at 37° C., read-out: IC50, inhibition of the binding of pentagastrin",110 nM
same,Activity on the central receptor relative to C-30,[1]; vs C-30,three times less active
same,Effect on the fundic mucosa (in words),fundic mucosa; mice,can inhibit both the aforementioned trophic effects of pentagastrin in a significant and dose-dependent manner
same,"Fundic DNA, Mean ± SD",fundic mucosa; [2],0.268 ± 0.03 mg
same,"Weight of the mucosa fundica, Mean ± SD",fundic mucosa; [2],23.85 ± 3.48 mg
same,"Fundic DNA, Mean ± SD",fundic mucosa; [3],0.252 ± 0.03 mg
same,"Weight of the mucosa fundica, Mean ± SD",fundic mucosa; [3],18.90 ± 2.54 mg
